Source: PubChem BioAssay AID1996
≈ marks a conversion by molar mass, not a printed value.

conditions: buffer; pH 7.4; 200.0 µM

| Structure (SMILES) | solubility kinetic [µg/mL] |
| --- | --- |
| O=[N+]([O-])c1ccc(S(=O)(=O)Nc2nc(-c3ccccc3)cs2)cc1 | > 54.2 |
| O=C(O)/C=C/C(=O)Nc1nc(-c2ccc3ccccc3c2)cs1 | > 48.7 |
| COC(=O)c1sccc1NC(=O)Nc1ccccc1Cl | 25.8 (≈ 83 µM) |
| COC(=O)/C(C#N)=C/c1c(N2CCN(C)CC2)nc2ccccn2c1=O | > 53 |
| Cc1ccc(CN2CCC(NC(=O)c3ccccc3)CC2)cc1 | > 46.3 |
| CC(C)(/C=N/O)N(O)C=C1C=CC(=O)C=C1 | > 33.3 |
| O=P(C(=NCCO)NO)(N1CCOCC1)N1CCOCC1 | > 48.3 |
| COC(=O)CSc1nc2ccc(N)cc2s1 | > 38.1 |
| O=C(NC1CCCC1)c1cc(COc2ccc3ncccc3c2)on1 | 21.2 (≈ 62.8 µM) |
| CC(CCc1ccccc1)NC(=O)C1CCC1 (centres undefined) | > 34.7 |
| O=C(NCC1CCCO1)c1csc(Nc2cccc3ccccc23)n1 (centres undefined) | 28.5 (≈ 80.6 µM) |
| CCOC(=O)c1sc(NC(=O)c2ccc(OC(C)=O)cc2)nc1C | 0.7 (≈ 2.01 µM) |
| COc1ccccc1-n1cc(-c2ccccc2)[nH]c1=S | 3 (≈ 10.6 µM) |
| COc1ccc(NC(=O)C2=C(C)NC(=O)NC2c2ccccc2[N+](=O)[O-])cc1 (centres undefined) | 57.1 (≈ 149 µM) |
| Cc1cc(C)c2c(n1)sc1c(=O)n(Cc3ccc(F)cc3)cnc12 | < 0.2 |
| COc1ccccc1CNC(=O)C(c1ccccc1)c1ccccc1 | < 0.7 |
| CCOc1ccc(S(=O)(=O)NC2CCCC2)cc1 | 18.3 (≈ 67.9 µM) |
| Cc1cc(C)c(-c2c(O)c3cccnc3n(C)c2=O)c(C)c1 | 43.4 (≈ 147 µM) |
| O=C(CSc1nc(-c2ccccc2)cs1)NCCCN1CCCC1=O | > 56.3 |
| COc1ccc(CCn2c(C)cc(C(=O)COC(=O)c3cnccn3)c2C)cc1 | 37.3 (≈ 94.8 µM) |
| CNC(=S)Nc1ccc(OCc2ccccc2)cc1 | 29.5 (≈ 108 µM) |
| O=C(COc1ccccc1Cl)NCCNC(=O)c1ccccn1 | > 50.1 |
| CN1C(=O)C(O)N=C(c2ccccc2)c2ccccc21 (centres undefined) | > 39.9 |
| O=C(O)c1ccc(OCC(O)Cn2c3ccccc3c3ccccc32)cc1 (centres undefined) | > 54.2 |

| Structure (SMILES) | solubility kinetic [µg/mL] |
| --- | --- |
| N#Cc1ccccc1COC(=O)c1ccc(Br)o1 | 28.4 (≈ 92.8 µM) |
| O=C(Nc1cccc(Cl)c1)Nc1csc([N+](=O)[O-])c1 | 0.5 (≈ 1.68 µM) |
| C/C(=C\C(=O)c1ncc(C(F)(F)F)cc1Cl)N(C)C | 41 (≈ 140 µM) |
| Cc1c(Cl)cnc(NC(=O)COC(=O)C2CCCC2)c1Cl | > 49.7 |
| CCOc1ccc(-n2ccnc(SCC(=O)NC3CCCC3)c2=O)cc1 | 32.6 (≈ 87.3 µM) |
| Cl.NC(N)=Nc1nc(-c2ccccc2)c2cc(Cl)ccc2n1 | 9.7 |
| COc1ccc(NC(=O)C2CCCN(S(C)(=O)=O)C2)cc1 (centres undefined) | 34.9 (≈ 112 µM) |
| Cc1ccc(CNC(=O)N2CCN(c3ccc(C)cc3)CC2)cc1 | 4.1 (≈ 12.7 µM) |
| COc1ccc(NC(=O)N2CCc3cc(OC)c(OC)cc3C2)cc1 | 9.1 (≈ 26.6 µM) |
| O=C(N/N=C/c1cccc(O)c1)c1ccccc1O | > 38.4 |
| Cc1cc2ccccn2c1C(=O)Nc1cccc(Cl)c1 | < 0.3 |
| Cc1ccc(NC(=O)C2CCN(S(C)(=O)=O)CC2)cc1Cl | 16.4 (≈ 49.6 µM) |
| Cn1c(SCC(=O)N2CCCC2=O)nc2ccccc2c1=O | 13.2 (≈ 41.6 µM) |
| COCCN(C)Cc1nc(C(c2ccccc2)c2ccccc2)no1 | 37.7 (≈ 112 µM) |
| Cc1nc(-c2ccc3c(c2)CCC(=O)N3)cs1 | 31.7 (≈ 130 µM) |
| Nc1nc(Nc2ccccc2F)nc(NC2CCCCC2)c1[N+](=O)[O-] | < 0.1 |
| CN1CCN(C(=O)/C(=C/c2ccc(F)cc2)NC(=O)c2ccccc2)CC1 | 54.5 (≈ 148 µM) |
| COC(=O)CCC(=O)Nc1ccc2oc3c(c2c1)CCCC3 | 43.5 (≈ 144 µM) |
| O=c1[nH]c(-c2ccccc2)c(-c2ccccc2)o1 | 14.8 (≈ 62.4 µM) |
| CCOc1ccc2[nH]c3c(NCCC(C)C)ncnc3c2c1 | 0.6 (≈ 2.01 µM) |
| C=CC(C)C(C(=O)c1ccccc1)N(C)C (centres undefined) | 12 (≈ 55.2 µM) |
| Cc1c(C(=O)Nc2ccccc2)c2ccc(C(F)(F)F)cc2n1O | 1 (≈ 2.99 µM) |
| COc1ccccc1NCCC(=O)OCC(=O)Nc1ccccc1F | > 52 |
| CC(=O)c1ccc(S(=O)(=O)N2CCN(C(C)=O)CC2)cc1 | > 46.6 |

| Structure (SMILES) | solubility kinetic [µg/mL] |
| --- | --- |
| Cc1ccc(NC(=O)CN2CCN(Cc3ccccc3)CC2)cc1Cl | 7.7 (≈ 21.5 µM) |
| COC(=O)COc1ccc(NC(=O)c2ccco2)cc1 | 39.1 (≈ 142 µM) |
| Cc1cc2c(NC3CCCCC3)ncnc2s1.Cl | 15 |
| CCc1cccc(C)c1NC(=S)NCC1CCN(c2ccc(OC)cc2)C1 (centres undefined) | 2.7 (≈ 7.04 µM) |
| CCCS(=O)(=O)C/C(N)=N/OC(=O)c1ccc(Cl)cc1 | 34.3 (≈ 108 µM) |
| COc1ccc(C(=O)N[C@H](C(=O)NCc2ccccc2)C(C)C)cc1 | 5.2 (≈ 15.3 µM) |
| O=C(NC1CC1)c1cccc(S(=O)(=O)N2CCOCC2)c1 | > 46.6 |
| C/C(=N/NC(=O)c1ccccn1)c1ccncc1 | > 36 |
| O=[N+]([O-])c1ccc(O)c(CN2CCCCCC2)c1 | > 37.5 |
| Cc1ccc(NC(c2ccccc2)c2nc3ccccc3[nH]c2=O)cc1 (centres undefined) | 0.5 (≈ 1.46 µM) |
| Cc1cc(C)nc(N2Cc3ccccc3C2=N)n1 | > 35.7 |
| CCC(C)[C@H](NC(=O)Nc1ccccc1F)C(=O)OC (some centres undefined) | > 42.3 |
| COc1ccc(Br)cc1CN1CCCCCC1 | 37.4 (≈ 125 µM) |
| CSc1nc(-c2ccc(Cl)cc2)c(C#N)c(=O)n1C | < 0.2 |
| CCOC(=O)C1=C(COC(=O)c2ccco2)NC(=O)NC1CC (centres undefined) | > 48.3 |
| OCCN1CCN(c2cc(C(F)(F)F)nc3c(F)cccc23)CC1 | 48.5 (≈ 141 µM) |
| COc1cc(SC)ccc1C(=O)OCC(=O)NCC(C)C | > 46.7 |
| O=C(NCCOc1ccccc1)C(=O)c1c[nH]c2ccccc12 | 0.9 (≈ 2.92 µM) |
| CC(=O)Nc1ccc(S(=O)(=O)N(C)CC(=O)OCC(=O)N2CCCCCC2)cc1 | 60.3 (≈ 142 µM) |
| O=C(COC(=O)Cc1ccccc1)Nc1cccnc1Cl | > 45.7 |
| CN(C(=O)c1c[nH]c(=O)cc1C(F)(F)F)c1ccc(Cl)c(Cl)c1 | 40.8 (≈ 112 µM) |
| CC(=O)Nc1c(C(N)=O)oc2ccc(Cl)cc12 | > 37.9 |
| CC(C)(Oc1ccc(Cl)cc1)C(=O)NC1CCCCC1 | 3.9 (≈ 13.2 µM) |
| O=C(COC(=O)CCC(=O)c1cccs1)NCc1cccs1 | > 50.6 |

| Structure (SMILES) | solubility kinetic [µg/mL] |
| --- | --- |
| CCN(CC)c1ccc(NC(=S)NCC2CCCO2)cc1 (centres undefined) | 34.1 (≈ 111 µM) |
| COc1cc(SC)ccc1C(=O)OCC(=O)N1CC(=O)Nc2ccccc21 | 17.6 (≈ 45.5 µM) |
| CCN(CC(=O)NCc1cccs1)C(=O)c1cccc(Cl)c1 | > 50.5 |
| CCOn1c(=O)c(-c2ccc(C)cc2)[n+]([O-])c2ccccc21 | 33.5 (≈ 113 µM) |
| CC1(C)Cc2ccccc2C(CSc2ccccc2C(=O)O)=N1 | 43.1 (≈ 132 µM) |
| CC(=O)Nc1ccc2nsnc2c1 | > 29 |
| CC(=O)c1c(C)[nH]c(C(=O)Nc2ccc(Cl)cc2)c1C | 2.2 (≈ 7.57 µM) |
| Cc1cccc(Nc2nc(N3CCOCC3)nc(N3CCOCC3)n2)c1 | 34.9 (≈ 97.9 µM) |
| CCOc1ccc(N=C2NC(=O)SC2CC(=O)OC)cc1 (centres undefined) | 12.4 (≈ 40.2 µM) |
| C/C(=N/NC(=O)CN1CCN(Cc2ccccc2Cl)CC1)c1cccnc1 | > 57.9 |
| CCOC(=O)c1cccc(NC(=O)Nc2ccc3c(c2)C(=O)OC3)c1 | < 0.4 |
| N#Cc1ccc(OCC(=O)NCCCn2ccnc2)cc1 | > 42.6 |
| CCOC(=O)CN1C(=O)S/C(=C/c2ccco2)C1=O | 21.2 (≈ 75.4 µM) |
| Cc1ccc(-c2noc(CCC(=O)NC3CC3)n2)cc1 | > 40.7 |
| O=C1CSC(c2cccc([N+](=O)[O-])c2)N1c1ccccc1 (centres undefined) | 41.4 (≈ 138 µM) |
| COc1ccccc1OCCN(C#N)c1nc(N(C)C)nc(N(C)C)n1 | 6.3 (≈ 17.6 µM) |
| Cc1ccc(C)c(C(=O)COC(=O)c2c(-c3ccccc3)noc2C)c1 | 4.4 (≈ 12.6 µM) |
| COC(=O)C1=C(N)Oc2cc(C)[nH]c(=O)c2C1c1ccc(Cl)cc1 (centres undefined) | 1.7 (≈ 4.9 µM) |
| Cc1noc(C)c1C(=O)N1CCC(CO)(Cc2ccccc2)CC1 | 42 (≈ 128 µM) |
| COc1ccc2c(c1OC)C(=O)N1C2SC[C@H]1C(=O)NC1CC1 (some centres undefined) | > 50.2 |
| Cc1cc(C)nc(SCc2cn3ccccc3n2)n1 | > 40.6 |
| COC(=O)c1ccc(Cn2cnc3cnccc32)cc1 | 29.9 (≈ 112 µM) |
| COc1ccc(C(=O)N2CCC2)cc1S(=O)(=O)NCc1ccc(Cl)cc1 | 57.4 (≈ 145 µM) |
| CC1CCCC(C)N1C(=O)COC(=O)Cc1ccc(F)cc1 (centres undefined) | 30.9 (≈ 101 µM) |

| Structure (SMILES) | solubility kinetic [µg/mL] |
| --- | --- |
| Cc1c(C=N)c(O)n(C)c(=O)c1C#N | > 28.7 |
| O=C(/C=C/c1ccc(Cl)c([N+](=O)[O-])c1)c1ccc(O)cc1 | 3.9 (≈ 12.8 µM) |
| Cc1ccn2cc(-c3cccc(NC(=O)CCC(=O)O)c3)nc2c1 | > 48.5 |
| CN(C(=O)Cn1cnc2sccc2c1=O)C1CCCCC1 | > 45.8 |
| COC(=O)c1cc(NC(=O)Cc2cccs2)cc(C(=O)OC)c1 | 19.5 (≈ 58.5 µM) |
| CC(C)CN(C(=O)c1ccco1)C1CCS(=O)(=O)C1 (centres undefined) | > 42.8 |
| Cc1ccc(CCCOC(=O)CN2CCCCC2)cc1 | 23.5 (≈ 85.3 µM) |
| CCNC(=O)c1cccc(NC(=O)C2CC(=O)N(CCc3ccccc3)C2)c1 (centres undefined) | > 56.9 |
| NC12NC(=O)C3(O)C4C5CC(C6C5C3C61)C42 (centres undefined) | > 32.7 |
| O=C(NCc1ccco1)NC(=O)c1csc([N+](=O)[O-])c1 | 0.6 (≈ 2.03 µM) |
| O=C(/C=C/c1cccc(Cl)c1)NCCCN1CCOCC1 | > 46.3 |
| CC1CCCC(C)N1C(=O)COC(=O)/C=C/c1ccc(Br)o1 (centres undefined) | 29.8 (≈ 80.5 µM) |
| Cc1nnc(SCC(=O)Nc2ccccc2F)n(N)c1=O | > 46.4 |
| CNc1ccc(/C=C2\CSc3ccccc3C2=O)cc1[N+](=O)[O-] | 3 (≈ 9.19 µM) |
| Cc1cccc(OCCCN2C(=O)C(=O)c3cc(C)ccc32)c1 | 10.7 (≈ 34.6 µM) |
| COc1ccc(CCNC(=O)/C=C/C(=O)O)cc1 | > 37.4 |
| Cn1c(CCNC(=O)C2CCCCC2)nc2cc([N+](=O)[O-])ccc21 | 44 (≈ 133 µM) |
| O=C(O)c1ccc(N=Cc2c(O)[nH]c(=O)[nH]c2=O)cc1 | > 41.3 |
| CN(CCO)c1nc(N)c(C#N)c(CC#N)c1C#N | > 38.4 |
| Cc1c(N)cc[n+](CC(=O)c2ccccc2)c1C.[Br-] | > 48.2 |
| COc1ccc(CCNC(=O)COC(=O)C2CC2C)cc1 (centres undefined) | > 43.7 |
| O=C(Nc1nc2ccccc2[nH]1)c1ccccc1OC(F)F | 8.9 (≈ 29.3 µM) |
| COC(=O)/C(C#N)=C/c1ccc(C)o1 | 20.7 (≈ 108 µM) |
